Source: patent publication US20170107229A1, “SUBSTITUTED TETRAHYDROPYRIDOTHIENOPYRIMIDINES” (BAYER PHARMA AKTIENGESELLSCHAFT, priority 2014, published 2017)
pIC50: −log10 of the molar value.

Molecular target: T1, human full-length MKNK1 (Homo sapiens, UniProt Q9BUB5, T385D)
T1 construct: GST (N); purchased Carna Biosciences 02-145; host or cells: insect cells (baculovirus expression system)
Test: MKNK1 kinase high ATP assay (TR-FRET)
Format: biochemical
Details: high ATP (2 mM final), 15 min preincubation with enzyme, GST-MKNK1 (T344D)
In short: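 GST-tagged human full-length MKNK1 (T344D), insect-cell expressed, preincubated 15 min at 22 °C with compound, then reacted 30 min at 22 °C with 2 mM ATP and 0.06 μM biotinylated peptide (final) in HEPES pH 7.5. Phospho-peptide detected by TR-FRET (665/620 nm ratio) after EDTA stop; normalised to no-inhibitor and no-enzyme controls.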

T1 sequence (Q9BUB5 1-424 isoform Q9BUB5-2 T344D): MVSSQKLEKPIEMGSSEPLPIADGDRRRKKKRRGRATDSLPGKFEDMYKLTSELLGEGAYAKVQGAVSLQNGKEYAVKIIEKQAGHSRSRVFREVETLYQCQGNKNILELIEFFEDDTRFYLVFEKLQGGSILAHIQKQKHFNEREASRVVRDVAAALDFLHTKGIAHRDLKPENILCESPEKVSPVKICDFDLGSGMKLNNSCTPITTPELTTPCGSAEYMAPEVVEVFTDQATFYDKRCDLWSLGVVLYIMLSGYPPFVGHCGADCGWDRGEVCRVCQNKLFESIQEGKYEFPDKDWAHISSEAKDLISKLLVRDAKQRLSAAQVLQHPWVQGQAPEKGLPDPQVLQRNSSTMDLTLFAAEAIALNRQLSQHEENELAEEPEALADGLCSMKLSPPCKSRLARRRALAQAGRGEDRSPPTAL

Compound	pIC50
CN1CCC(C(=O)N2CCc3c(sc4ncnc(Nc5cnc6[nH]ncc6c5)c34)C2)CC1 [Example 67, (1-Methylpiperidin-4-yl)[4-(1H-pyrazolo[3,4-b]pyridin-5-ylamino)-5,8-dihydropyrido[4′,3′:4,5]thieno[2,3-d]pyrimidin-7(6H)-yl]methanone]	7.28
COc1cc2[nH]ncc2cc1Nc1ncnc2sc3c(c12)CCN(C(=O)C1CCN(C)CC1)C3 [Example 68, {4-[(6-Methoxy-1H-indazol-5-yl)amino]-5,8-dihydropyrido[4′,3′:4,5]thieno[2,3-d]pyrimidin-7(6H)-yl}(1-methylpiperidin-4-yl)methanone]	8.05
CN1CCC(C(=O)N2CCc3c(sc4ncnc(Nc5ccc6[nH]ncc6c5)c34)C2)CC1 [Example 69, [4-(1H-Indazol-5-ylamino)-5,8-dihydropyrido[4′,3′:4,5]thieno[2,3-d]pyrimidin-7(6H)-yl](1-methylpiperidin-4-yl)methanone]	7.80
COc1cc2[nH]ncc2cc1Nc1ncnc2sc3c(c12)CCN(C(=O)N1CCCCC1)C3 [Example 70, {4-[(6-Methoxy-1H-indazol-5-yl)amino]-5,8-dihydropyrido[4′,3′:4,5]thieno[2,3-d]pyrimidin-7(6H)-yl}(piperidin-1-yl)methanone]	7.72
COc1cc2[nH]ncc2cc1Nc1ncnc2sc3c(c12)CCN(CCC(=O)N(C)C)C3 [Example 71, 3-{4-[(6-Methoxy-1H-indazol-5-yl)amino]-5,8-dihydropyrido[4′,3′:4,5]thieno[2,3-d]pyrimidin-7(6H)-yl}-N,N-dimethylpropanamide]	7.72
COc1cc2[nH]ncc2cc1Nc1ncnc2sc3c(c12)CCN(C(=O)N1CCCC1)C3 [Example 72, {4-[(6-Methoxy-1H-indazol-5-yl)amino]-5,8-dihydropyrido[4′,3′:4,5]thieno[2,3-d]pyrimidin-7(6H)-yl}(pyrrolidin-1-yl)methanone]	8.00
COc1cc2[nH]ncc2cc1Nc1ncnc2sc3c(c12)CCN(C(=O)c1cccn1C)C3 [Example 73, {4-[(6-Methoxy-1H-indazol-5-yl)amino]-5,8-dihydropyrido[4′,3′:4,5]thieno[2,3-d]pyrimidin-7(6H)-yl}(1-methyl-1H-pyrrol-2-yl)methanone]	8.15
CSc1cc2[nH]ncc2cc1Nc1ncnc2sc3c(c12)CCN(C(=O)C1CCN(C)CC1)C3 [Example 74, (1-Methylpiperidin-4-yl)[4-{[6-(methylsulfanyl)-1H-indazol-5-yl]amino}-5,8-dihydropyrido[4′,3′:4,5]thieno[2,3-d]pyrimidin-7(6H)-yl]methanone]	8.40
COc1cc2[nH]ncc2cc1Nc1ncnc2sc3c(c12)CCN(C(=O)c1cnc[nH]1)C3 [Example 75, 1H-Imidazol-5-yl{4-[(6-methoxy-1H-indazol-5-yl)amino]-5,8-dihydropyrido[4′,3′:4,5]thieno[2,3-d]pyrimidin-7(6H)-yl}methanone]	8.22
COc1cc2[nH]ncc2cc1Nc1ncnc2sc3c(c12)CCN(C(=O)c1ccc(Cl)n1C)C3 [Example 76, (5-Chloro-1-methyl-1H-pyrrol-2-yl){4-[(6-methoxy-1H-indazol-5-yl)amino]-5,8-dihydropyrido[4′,3′:4,5]thieno[2,3-d]pyrimidin-7(6H)-yl}methanone]	8.00
CN1CCC(C(=O)N2CCc3c(sc4ncnc(Nc5cc6cn[nH]c6cn5)c34)C2)CC1 [Example 77, (1-Methylpiperidin-4-yl)[4-(1H-pyrazolo[3,4-c]pyridin-5-ylamino)-5,8-dihydropyrido[4′,3′:4,5]thieno[2,3-d]pyrimidin-7(6H)-yl]methanone]	7.55
CCOCCN(C)C(=O)N1CCc2c(sc3ncnc(Nc4cc5cn[nH]c5cc4OC)c23)C1 [Example 78, N-(2-Ethoxyethyl)-4-[(6-methoxy-1H-indazol-5-yl)amino]-N-methyl-5,8-dihydropyrido[4′,3′:4,5]thieno[2,3-d]pyrimidine-7(6H)-carboxamide]	5.99
CN1CCC(C(=O)N2CCc3c(sc4ncnc(Nc5ccn6nccc6c5)c34)C2)CC1 [Example 79, (1-Methylpiperidin-4-yl)[4-(pyrazolo[1,5-a]pyridin-5-ylamino)-5,8-dihydropyrido[4′,3′:4,5]thieno[2,3-d]pyrimidin-7(6H)-yl]methanone]	6.73
COc1cc2[nH]ncc2cc1Nc1ncnc2sc3c(c12)CCN(Cc1ncon1)C3 [Example 80, N-(6-Methoxy-1H-indazol-5-yl)-7-(1,2,4-oxadiazol-3-ylmethyl)-5,6,7,8-tetrahydropyrido[4′,3′:4,5]thieno[2,3-d]pyrimidin-4-amine]	7.77
COc1cc2[nH]ncc2cc1Nc1ncnc2sc3c(c12)CCN(C(=O)c1cocn1)C3 [Example 81, {4-[(6-Methoxy-1H-indazol-5-yl)amino]-5,8-dihydropyrido[4′,3′:4,5]thieno[2,3-d]pyrimidin-7(6H)-yl}(1,3-oxazol-4-yl)methanone]	8.30
COc1cc2[nH]ncc2cc1NCCN(C)C(=O)N1CCc2c(sc3ncnc(Nc4cc5cn[nH]c5cc4OC)c23)C1 [Example 82, 4-[(6-Methoxy-1H-indazol-5-yl)amino]-N-{2-[(6-methoxy-1H-indazol-5-yl)amino]ethyl}-N-methyl-5,8-dihydropyrido[4′,3′:4,5]thieno[2,3-d]pyrimidine-7(6H)-carboxamide]	7.32
COc1cc2[nH]ncc2cc1Nc1ncnc2sc3c(c12)CCN(CCCN1CCNC1=O)C3 [Example 83, 1-(3-{4-[(6-Methoxy-1H-indazol-5-yl)amino]-5,8-dihydropyrido[4′,3′:4,5]thieno[2,3-d]pyrimidin-7(6H)-yl}propyl)imidazolidin-2-one]	7.82
COc1cc2[nH]ncc2cc1Nc1ncnc2sc3c(c12)CCN(CCCn1cccc1)C3 [Example 84, N-(6-Methoxy-1H-indazol-5-yl)-7-[3-(1H-pyrrol-1-yl)propyl]-5,6,7,8-tetrahydropyrido[4′,3′:4,5]thieno[2,3-d]pyrimidin-4-amine]	8.10
COc1cc2[nH]ncc2cc1Nc1ncnc2sc3c(c12)CCN(CCN1CCCC1=O)C3 [Example 85, 1-(2-{4-[(6-Methoxy-1H-indazol-5-yl)amino]-5,8-dihydropyrido[4′,3′:4,5]thieno[2,3-d]pyrimidin-7(6H)-yl}ethyl)pyrrolidin-2-one]	8.00
COc1cc2[nH]ncc2cc1Nc1ncnc2sc3c(c12)CCN(CCCN1CCCC1=O)C3 [Example 86, 1-(3-{4-[(6-Methoxy-1H-indazol-5-yl)amino]-5,8-dihydropyrido[4′,3′:4,5]thieno[2,3-d]pyrimidin-7(6H)-yl}propyl)pyrrolidin-2-one]	7.92
COc1cc2[nH]ncc2cc1Nc1ncnc2sc3c(c12)CCN(CCCN1CCOCC1=O)C3 [Example 87, 4-(3-{4-[(6-Methoxy-1H-indazol-5-yl)amino]-5,8-dihydropyrido[4′,3′:4,5]thieno[2,3-d]pyrimidin-7(6H)-yl}propyl)morpholin-3-one]	7.80
COc1cc2[nH]ncc2cc1Nc1ncnc2sc3c(c12)CCN(Cc1cc(C(=O)N(C)C)no1)C3 [Example 88, 5-({4-[(6-Methoxy-1H-indazol-5-yl)amino]-5,8-dihydropyrido[4′,3′:4,5]thieno[2,3-d]pyrimidin-7(6H)-yl}methyl)-N,N-dimethyl-1,2-oxazole-3-carboxamide]	8.05
COc1cc2[nH]ncc2cc1Nc1ncnc2sc3c(c12)CCN(CCCN1C[C@@H](C)O[C@@H](C)C1)C3 [Example 89, 7-{3-[(2R,6S)-2,6-Dimethylmorpholin-4-yl]propyl}-N-(6-methoxy-1H-indazol-5-yl)-5,6,7,8-tetrahydropyrido[4′,3′:4,5]thieno[2,3-d]pyrimidin-4-amine]	8.52
COc1cc2[nH]ncc2cc1Nc1ncnc2sc3c(c12)CCN(CCCN1CCOCC1)C3 [Example 90, N-(6-Methoxy-1H-indazol-5-yl)-7-[3-(morpholin-4-yl)propyl]-5,6,7,8-tetrahydropyrido[4′,3′:4,5]thieno[2,3-d]pyrimidin-4-amine]	8.40
COc1cc2[nH]ncc2cc1Nc1ncnc2sc3c(c12)CCN(C(=O)C1CCCC1)C3 [Example 91, Cyclopentyl{4-[(6-methoxy-1H-indazol-5-yl)amino]-5,8-dihydropyrido[4′,3′:4,5]thieno[2,3-d]pyrimidin-7(6H)-yl}methanone]	8.52
COc1cc2[nH]ncc2cc1Nc1ncnc2sc3c(c12)CCN(C(=O)C1CCCCC1)C3 [Example 92, Cyclohexyl{4-[(6-methoxy-1H-indazol-5-yl)amino]-5,8-dihydropyrido[4′,3′:4,5]thieno[2,3-d]pyrimidin-7(6H)-yl}methanone]	8.52
COc1cc2[nH]ncc2cc1Nc1ncnc2sc3c(c12)CCN(C(=O)N1[C@H](C)COC[C@H]1C)C3 [Example 93, [(3R,5R)-3,5-Dimethylmorpholin-4-yl]{4-[(6-methoxy-1H-indazol-5-yl)amino]-5,8-dihydropyrido[4′,3′:4,5]thieno[2,3-d]pyrimidin-7(6H)-yl}methanone]	8.40
COc1cc2[nH]ncc2cc1Nc1ncnc2sc3c(c12)CCN(C(=O)N1C[C@H](C)O[C@@H](C)C1)C3 [Example 94, [(2S,6S)-2,6-Dimethylmorpholin-4-yl]{4-[(6-methoxy-1H-indazol-5-yl)amino]-5,8-dihydropyrido[4′,3′:4,5]thieno[2,3-d]pyrimidin-7(6H)-yl}methanone]	8.52
COc1cc2[nH]ncc2cc1Nc1ncnc2sc3c(c12)CCN(C(=O)N1C[C@@H](C)O[C@H](C)C1)C3 [Example 95, [(2R,6R)-2,6-Dimethylmorpholin-4-yl]{4-[(6-methoxy-1H-indazol-5-yl)amino]-5,8-dihydropyrido[4′,3′:4,5]thieno[2,3-d]pyrimidin-7(6H)-yl}methanone]	8.52
